US11975009B2, “Use of zinc porphyrin as an antimicrobial” (ZNABLE LLC, priority 2022, dated 2024)

Assays:
pqsA mutant biofilms = settings: mutant with little to no eDNA; cited from earlier work
[1] = system: PsA biofilms and planktonic cells; settings: cited from earlier work
PsA = test: Activity of extant antibiotics together with ZnPor (II); settings: pre-treated by ZnPor (II)

Row | Structure (SMILES) | effect on pqsA mutant biofilms (pqsA mutant biofilms) | toxicity to bacterial cells ([1]; absence of photoactivation) | effect on antibiotic sensitivity of biofilm-associated cells ([1]; light activation not required) | efficacy against PsA biofilms and planktonic cells ([1]; when photoactivated) | effect on PsA biofilms ([1]; without light activation) | killing of PsA (PsA)
1 | C[n+]1ccc(-c2c3nc(c(-c4cc[n+](C)cc4)c4ccc([nH]4)c(-c4cc[n+](C)cc4)c4nc(c(-c5cc[n+](C)cc5)c5ccc2[nH]5)C=C4)C=C3)cc1.Cc1ccc(S(=O)(=O)[O-])cc1.Cc1ccc(S(=O)(=O)[O-])cc1.Cc1ccc(S(=O)(=O)[O-])cc1.Cc1ccc(S(=O)(=O)[O-])cc1 [TMP, 5,10,15,20-tetrakis(1-methylpyridino)-21H,23H-porphine, tetra-p-tosylate salt] | no effect | little to no toxicity | sensitive to tobramycin, gentamycin, and vancomycin | highly effective | disruption and detachment from the substrata | 
2 | CN[C@H](CC(C)C)C(=O)N[C@H]1C(=O)N[C@@H](CC(N)=O)C(=O)N[C@H]2C(=O)N[C@H]3C(=O)N[C@H](C(=O)N[C@H](C(=O)O)c4cc(O)cc(O)c4-c4cc3ccc4O)[C@H](O)c3ccc(c(Cl)c3)Oc3cc2cc(c3O[C@@H]2O[C@H](CO)[C@@H](O)[C@H](O)[C@H]2O[C@H]2C[C@](C)(N)[C@H](O)[C@H](C)O2)Oc2ccc(cc2Cl)[C@H]1O [Vancomycin, reference compound] |  |  |  |  |  | kills
